Measurements taken from ChEMBL document CHEMBL1146327, “Inhibitors of the FEZ-1 metallo-beta-lactamase” (Bioorg Med Chem Lett, 2007).
Calls of active or inactive are those of the source. No cut-off for these calls is given here.

What was measured:
[1] = (§1) Inhibition of metallo-beta-lactamases FEZ1; set-up: species or system Fluoribacter gormanii
[2] = biological target: Metallo-beta-lactamase type 2 (Aeromonas hydrophila) (UniProt P26918); assay: Inhibition of metallo-beta-lactamases CphA; details: for inhibition: concentration not given here
Chain of Metallo-beta-lactamase type 2 (Aeromonas hydrophila) (P26918 whole entry): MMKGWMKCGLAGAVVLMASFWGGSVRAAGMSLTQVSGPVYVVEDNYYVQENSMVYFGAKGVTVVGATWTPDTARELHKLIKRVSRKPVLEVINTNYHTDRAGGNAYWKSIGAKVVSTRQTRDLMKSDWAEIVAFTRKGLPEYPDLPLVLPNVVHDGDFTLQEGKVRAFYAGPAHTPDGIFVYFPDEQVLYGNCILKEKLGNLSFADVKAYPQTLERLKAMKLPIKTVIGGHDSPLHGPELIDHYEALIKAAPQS

[3] = Inhibition of metallo-beta-lactamases L1; details: for inhibition: concentration not given here
Fluoribacter gormanii [4] = assay: as §1; set-up: concentration or dose not given beside the values; details: concentration not given here
[5] = biological target: Metallo-beta-lactamase type 2 (Pseudomonas aeruginosa) (UniProt Q7WYA8); assay: Inhibition of metallo-beta-lactamases IMP1; details: for inhibition: concentration not given here
Chain of Metallo-beta-lactamase type 2 (Pseudomonas aeruginosa) (Q7WYA8 whole entry): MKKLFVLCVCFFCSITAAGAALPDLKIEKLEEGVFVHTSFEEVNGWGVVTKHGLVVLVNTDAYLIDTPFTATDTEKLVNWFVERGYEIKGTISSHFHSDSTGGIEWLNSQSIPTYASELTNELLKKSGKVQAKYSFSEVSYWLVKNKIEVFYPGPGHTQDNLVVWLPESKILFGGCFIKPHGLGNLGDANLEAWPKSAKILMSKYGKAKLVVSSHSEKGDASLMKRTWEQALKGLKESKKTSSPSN

Bacillus cereus [6] = assay: Inhibition of metallo-beta-lactamases Bc2; details: for inhibition: concentration not given here
[7] = biological target: Metallo-beta-lactamase type 2 (Pseudomonas aeruginosa) (UniProt Q7WYA8); assay: Inhibition of metallo-beta-lactamases IMP1 assessed as residual activity at 100 uM
Bacillus cereus [8] = assay: Inhibition of metallo-beta-lactamases Bc2 assessed as residual activity at 100 uM
[9] = biological target: Metallo-beta-lactamase type 2 (Aeromonas hydrophila) (UniProt P26918); assay: Inhibition of metallo-beta-lactamases CphA assessed as residual activity at 100 uM
[10] = Inhibition of metallo-beta-lactamases L1 assessed as residual activity at 100 uM
Fluoribacter gormanii [11] = assay: Inhibition of metallo-beta-lactamases FEZ1 assessed as residual activity at 100 uM

SMILES	inhibition (Fluoribacter gormanii [4])	Activity [7]	Activity (Bacillus cereus [8])	Activity [9]	Activity [10]	Activity (Fluoribacter gormanii [11])	also measured
O=C(NO)c1cc(O)cc(O)c1	–	–	–	–	–	–	Ki [1]: 13.3 µM
O=C(NO)c1cc(O)cc(C(=O)NCc2ccccc2)c1	54%	81%	103%	81%	95%	46%	–
O=C(O)CCC(=O)NO	< 10%	–	–	–	–	–	inhibition [2]: < 10%; inhibition [3]: < 10%; inhibition [5]: < 10%; inhibition (Bacillus cereus [6]): < 10%
O=C(O)c1cc(O)cc(C(=O)c2ccc(O)cc2)c1	–	100%	86%	83%	107%	67%	–
CCN(CC)C(=O)c1cc(O)cc(C(=O)NO)c1	34%	85%	101%	90%	93%	66%	–
O=C(NO)c1cc(O)cc(C(=O)c2ccc(O)cc2)c1	–	83%	91%	84%	102%	15%	–
O=C(NO)c1cc(O)cc(C(=O)N2CCCC2)c1	36%	85%	100%	86%	92%	64%	–

The next lines start with results.

inhibition (Fluoribacter gormanii [4])	Activity [7]	Activity (Bacillus cereus [8])	Activity [9]	Activity [10]	Activity (Fluoribacter gormanii [11])	SMILES	also measured
55%	–	–	–	–	–	O=C(NO)c1ccccc1	Activity [2]: inactive; Activity [3]: inactive; Activity [5]: inactive; Activity (Bacillus cereus [6]): inactive
64%	–	–	–	–	–	O=C(NO)c1cccc(O)c1	Ki [1]: 17.9 µM
53%	93%	103%	92%	96%	47%	CNC(=O)c1cc(O)cc(C(=O)NO)c1	–
53%	–	–	–	–	–	O=C(NO)c1ccc(O)cc1	–
45%	–	–	–	–	–	O=C(NO)c1ccccc1O	–
58%	92%	82%	90%	103%	42%	O=C(NO)c1cc(O)cc(C(=O)Nc2ccccc2)c1	–
–	67%	93%	79%	97%	92%	O=C(O)c1cc(O)cc(C(=O)NO)c1	–
< 10%	–	–	–	–	–	O=C(O)c1cccc(C(=O)NO)c1	inhibition [2]: < 10%; inhibition [3]: < 10%; inhibition [5]: < 10%; inhibition (Bacillus cereus [6]): < 10%
